Results: PubChem BioAssay AID1332 (Southern Research Institute, 2008)
Values after ≈ are worked out from the molar mass of the structure shown. Starred links: 1 amine or outer side, 2 acyl side, 3 side chain; linkers in the order of their positions; H or OH if unused. Positions of bridges follow the written chain, without caps; N, C: chain ends. Non-standard residues stand in square brackets, D forms with d. Residues, ends and D or L forms follow the SMILES beside them. *: point of attachment. X2 = NC1=N[C@@H]([C@H](N[*:1])C(=O)[*:2])C[C@H](O)N1; ΔAla(Z-3-ureido) = NC(=O)N/C=C(\N)C(=O)O; β3hOrn = NCCC[C@H](N)CC(=O)*; Dap = NC[C@H](N)C(=O)O

These compounds were tested on M. tuberculosis H37Rv growth inhibition (assay: Mycobacterium tuberculosis H37Rv growth inhibition, confirmatory dose response, cytotoxicity (AID 1332);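 also: bacteria incubated 7 days before adding Alamar blue readout reagent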).

SMILES	IC90
NNC(=O)c1ccncc1	10.4 µg/mL (≈ 75.5 µM)
CN[C@@H]1C(O[C@H]2O[C@H](CO)[C@@H](N)[C@H](O)[C@H]2O)O[C@H]2C[C@@H](N)[C@@H](O[C@H]3[C@H](O)[C@@H](O)[C@H](N)C[C@@H]3N)OC2[C@@H]1O (stereo partly specified)	3.57 µg/mL (≈ 6.61 µM)
OCCN1CCN(CCCN2c3ccccc3Sc3ccc(C(F)(F)F)cc32)CC1	7.59 µg/mL (≈ 17.3 µM)
NC[C@H]1O[C@H](O[C@H]2[C@H](O)[C@@H](O[C@H]3O[C@H](CO)[C@@H](O)[C@H](N)[C@H]3O)[C@H](N)C[C@@H]2N)[C@H](N)C[C@@H]1O	1.94 µg/mL (≈ 4.16 µM)
CN1CCN(CCCN2c3ccccc3Sc3ccc(Cl)cc32)CC1	8.01 µg/mL (≈ 21.4 µM)
C=CCOC(Cn1ccnc1)c1ccc(Cl)cc1Cl (stereo unspecified)	2 µg/mL (≈ 6.73 µM)
CO[C@@H]1[C@@H](OC(N)=O)[C@@H](O)C(Oc2ccc3c(O)c(NC(=O)c4ccc(O)c(CC=C(C)C)c4)c(=O)oc3c2C)OC1(C)C (stereo partly specified)	4.96 µg/mL (≈ 8.1 µM)
CN1C[C@H](CNC(=O)OCc2ccccc2)C[C@@H]2c3cccc4c3c(cn4C)C[C@H]21	5.85 µg/mL (≈ 14.5 µM)
CCCCN(CCCC)CCC(O)c1cc2c(Cl)cc(Cl)cc2c2cc(C(F)(F)F)ccc12 (stereo unspecified)	1.15 µg/mL (≈ 2.3 µM)
Cc1c2ccncc2c(C)c2c1[nH]c1ccccc12	0.17 µg/mL (≈ 0.69 µM)
Cc1cc(C(C)(C)CC(C)(C)C)ccc1OCCOCC[N+](C)(C)Cc1ccccc1	4.91 µg/mL
CCCCc1oc2ccccc2c1C(=O)c1cc(I)c(OCCN(CC)CC)c(I)c1	6.3 µg/mL (≈ 9.76 µM)
CN(C)[C@@H]1C(=O)C(C(N)=O)=C(O)[C@@]2(O)C(=O)C3=C(O)c4c(O)cccc4[C@@](C)(O)[C@H]3C[C@@H]12	6.54 µg/mL (≈ 14.7 µM)
CCn1cc(C(=O)O)c(=O)c2cc(F)c(N3CCNC(C)C3)c(F)c21 (stereo unspecified)	0.258 µg/mL (≈ 0.734 µM)
NCC[C@H](O)C(=O)N[C@@H]1C[C@H](N)[C@@H](O[C@H]2O[C@H](CN)[C@@H](O)[C@H](O)[C@H]2O)[C@H](O)[C@H]1O[C@H]1O[C@H](CO)[C@@H](O)[C@H](N)[C@H]1O	0.04 µg/mL (≈ 0.0683 µM)
CC1=CC(=O)c2ccccc2C1=O	5.38 µg/mL (≈ 31.2 µM)
CN(C)CC/C=C1\c2ccccc2Sc2ccc(Cl)cc21	3.93 µg/mL (≈ 12.4 µM)
C(=C\c1ccccc1)/CN1CCN(C(c2ccccc2)c2ccccc2)CC1	7.6 µg/mL (≈ 20.6 µM)
Cc1cc(C=Cc2ccc3cc(N(C)C)ccc3[n+]2C)c(C)n1-c1ccccc1	0.195 µg/mL

SMILES	IC90
O=C(N/N=C/c1ccc([N+](=O)[O-])o1)c1ccc(O)cc1	1.54 µg/mL (≈ 5.58 µM)
CS(=O)(=O)c1ccc([C@@H](O)[C@@H](CO)NC(=O)C(Cl)Cl)cc1	2.42 µg/mL (≈ 6.81 µM)
Oc1c(I)cc(Cl)c2cccnc12	0.482 µg/mL (≈ 1.58 µM)
O=C(Nc1ccc([N+](=O)[O-])cc1Cl)c1cc(Cl)ccc1O	0.076 µg/mL (≈ 0.232 µM)
NCCC[C@H](N)CC(=O)N[C@H]1CNC(=O)[C@H]([C@H]2C[C@H](O)NC(N)=N2)NC(=O)/C(=C/NC(N)=O)NC(=O)[C@H](CO)NC(=O)[C@H](CO)NC1=O (β3hOrn-[Dap]SS[ΔAla(Z-3-ureido)][X2]; lactam 1-C)	0.069 µg/mL (≈ 0.101 µM)
N[C@@H]1CONC1=O	1.05 µg/mL (≈ 10.3 µM)
OCCN1CCN(CCCN2c3ccccc3Sc3ccc(Cl)cc32)CC1	11.7 µg/mL (≈ 28.9 µM)
CN(C)[C@@H]1C(=O)C(C(N)=O)=C(O)[C@@]2(O)C(=O)C3=C(O)c4c(O)ccc(Cl)c4[C@@H](O)[C@H]3C[C@@H]12	12.6 µg/mL (≈ 27.1 µM)
CC(C)(C)c1ccc(C(O)CCCN2CCC(C(O)(c3ccccc3)c3ccccc3)CC2)cc1 (stereo unspecified)	1.61 µg/mL (≈ 3.42 µM)
CCCCCCCCCCCCCCCC[N+](C)(C)CCN(Cc1ccc(OC)cc1)c1ncccn1	1.1 µg/mL
NC(=NCCCCCCN=C(N)/N=C(\N)Nc1ccc(Cl)cc1)/N=C(\N)Nc1ccc(Cl)cc1	0.295 µg/mL (≈ 0.584 µM)
O=C1OCCN1/N=C/c1ccc([N+](=O)[O-])o1	5.4 µg/mL (≈ 24 µM)
CN1CCCC(CC2c3ccccc3Sc3ccccc32)C1 (stereo unspecified)	10.4 µg/mL (≈ 33.7 µM)
CC(C)N=c1cc2n(-c3ccc(Cl)cc3)c3ccccc3nc-2cc1Nc1ccc(Cl)cc1	0.04 µg/mL (≈ 0.0845 µM)
OC(c1cc(C(F)(F)F)nc2c(C(F)(F)F)cccc12)C1CCCCN1 (stereo unspecified)	4.16 µg/mL (≈ 11 µM)
O=C1NCN(c2ccccc2)C12CCN(CCCC(c1ccc(F)cc1)c1ccc(F)cc1)CC2	2.64 µg/mL (≈ 5.56 µM)
CCn1cc(C(=O)O)c(=O)c2cc(F)c(N3CCNCC3)cc21	0.81 µg/mL (≈ 2.54 µM)
CN(C)c1ccc(O)c2c1CC1CC3[C@@H](N(C)C)C(=O)C(C(N)=O)=C(O)[C@]3(O)C(=O)C1=C2O (stereo partly specified)	2.04 µg/mL (≈ 4.46 µM)
Clc1ccccc1C(c1ccccc1)(c1ccccc1)n1ccnc1	5.36 µg/mL (≈ 15.6 µM)

SMILES	IC90
Cc1cccc(CN2CCN(C(c3ccccc3)c3ccc(Cl)cc3)CC2)c1 (stereo unspecified)	7.72 µg/mL (≈ 19.7 µM)
O=c1[nH]c2ccccc2n1C1CCN(CCCC(c2ccc(F)cc2)c2ccc(F)cc2)CC1	2.34 µg/mL (≈ 5.06 µM)
CC(=O)O[C@H]1C[C@@]2(C)[C@@H](C[C@@H](O)[C@H]3[C@@]4(C)CC[C@@H](O)[C@@H](C)C4CC[C@@]32C)/C1=C(\CCC=C(C)C)C(=O)O (stereo partly specified)	0.586 µg/mL (≈ 1.13 µM)
CN(C(=O)CN(CCO)CC(=O)N(C)C(C)(C)Cc1ccccc1)C(C)(C)Cc1ccccc1	15.6 µg/mL (≈ 33.4 µM)
CSc1ccc2c(c1)C(N1CCN(C)CC1)Cc1ccccc1S2 (stereo unspecified)	4.56 µg/mL (≈ 12.8 µM)
CCCCCCC[N+](CC)(CC)CCCCc1ccc(Cl)cc1	15.6 µg/mL
CSc1ccc2c(c1)N(CCC1CCCCN1C)c1ccccc1S2 (stereo unspecified)	3.01 µg/mL (≈ 8.13 µM)
N=C(N)c1ccc(OCCCCCOc2ccc(C(=N)N)cc2)cc1	1.68 µg/mL (≈ 4.93 µM)
Clc1ccc(CCC(Cn2ccnc2)Sc2c(Cl)cccc2Cl)cc1 (stereo unspecified)	1.61 µg/mL (≈ 3.9 µM)
CCN(CC)CCOc1ccc(/C(=C(/Cl)c2ccccc2)c2ccccc2)cc1	6.13 µg/mL (≈ 15.1 µM)
O=C1C=CC(=O)c2c1ccc1c2ccc2ccccc21	2.17 µg/mL (≈ 8.42 µM)
N[C@H]1CONC1=O	2.27 µg/mL (≈ 22.3 µM)
OCCN1CCN(CC/C=C2/c3ccccc3Sc3ccc(C(F)(F)F)cc32)CC1	5.46 µg/mL (≈ 12.6 µM)
O=c1c2ccccc2[se]n1-c1ccccc1	2.16 µg/mL (≈ 7.87 µM)
N[C@@H](C(=O)N[C@@H]1C(=O)N2C(C(=O)O)=C(Cl)CS[C@H]12)c1ccccc1	11.3 µg/mL (≈ 30.6 µM)
CCN(CC)C(=S)SSC(=S)N(CC)CC	0.164 µg/mL (≈ 0.553 µM)
CNCCCC12CCC(c3ccccc31)c1ccccc12	17.9 µg/mL (≈ 64.5 µM)
COc1ccc(CCN2CCC(Nc3nc4ccccc4n3Cc3ccc(F)cc3)CC2)cc1	6.79 µg/mL (≈ 14.8 µM)
